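All cell lines were grown in 96-well plates and treated with compound for 48 hours. Definition used: TGI = concentration required for complete inhibition of growth.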
Tests used:
Assay in all cases: NCI tumour cell line growth inhibition, 48 h
[1] = tested on: SW-620 colon
[2] = tested on: LXFL 529 NSCLC
[3] = tested on: DMS 273 small cell lung
[4] = tested on: KM20L2 colon
[5] = tested on: DLD-1 colon
[6] = tested on: SNB-78 CNS
[7] = tested on: M19-MEL melanoma
[8] = tested on: XF 498 CNS
[9] = tested on: RXF-631 renal
[10] = tested on: DMS 114 small cell lung
[11] = tested on: HOP-18 NSCLC

C[C@@H]1CC[C@@H]2[C@@H](C1)O[C@@H]([C@@H](C)OCc1ccccc1)SC2(C)C
TGI [1]: 34 µM

Cc1ccc(S(=O)(=O)N/N=C2/CCC3(O)CC2(C)CCC2[C@H]3CC2(C)C)cc1 (some centres not stated)
TGI [1]: > 100 µM

CCOP(=O)(O)C(Nc1ccc(N=Nc2ccccc2)cc1)c1cccc(C(Nc2ccc(N=Nc3ccccc3)cc2)P(=O)(O)OCC)c1 (configuration not stated)
TGI [1]: > 100 µM

O=C1CSC(c2ccccc2O)N1c1ccc(-n2c(-c3ccccc3)nc3ccccc3c2=O)cc1 (configuration not stated)
TGI [1]: > 100 µM

COc1ccc(-c2nc(-c3cnccn3)n(C3OC(CO)C(O)C3O)n2)cc1 (configuration not stated)
TGI [1]: > 10 µM

CCCc1nc2c(n1CC)C(=O)c1ccccc1C2=O
TGI [1]: > 100 µM

Cc1ccc2nc(NS(=O)(=O)c3cc(C)c(Cl)cc3S)[nH]c2c1
TGI [1]: > 100 µM

CC(=O)N1C(Nc2nccs2)CCN1c1ccccc1 (configuration not stated)
TGI [1]: > 10 µM

CSc1nc(=O)cnn1C
TGI [1]: > 100 µM

CO/C(=N\N=C\c1ccc(Cl)c(Cl)c1)c1ccncc1
TGI [1]: > 10 µM

CC1=CCC(C(C)(C)NC(=O)c2ccccc2)C/C1=N/O (configuration not stated)
TGI [1]: > 100 µM

CC(Cn1c2c(c3cc(O)ccc31)CCc1ccc(O)cc1-2)N(C)C (configuration not stated)
TGI [1]: 55 µM

COc1ccc2nc3ccc(OC)cc3c(SCCCl)c2c1
TGI [1]: > 100 µM

Cc1nn(C(=O)c2ccncc2)c2c1C(c1ccccc1[N+](=O)[O-])SC(N)=N2 (configuration not stated)
TGI [1]: > 10 µM

Cc1ccc(C(=O)Oc2ccccc2)cc1N=NN(C)C
TGI [2]: > 100 µM
TGI [3]: > 100 µM
TGI [4]: > 100 µM
TGI [5]: > 100 µM
TGI [6]: > 100 µM
TGI [7]: > 100 µM
TGI [1]: > 100 µM

CCOC(=O)c1nc2ccc(C(F)(F)F)cc2nc1Nc1ccc(OC)cc1
TGI [1]: > 100 µM

CC(C)[Si]1(C(C)C)OCC2OC(n3ccc(=O)[nH]c3=O)C([Se]c3ccccc3)C2O[Si](C(C)C)(C(C)C)O1 (configuration not stated)
TGI [1]: 6.62 µM

O=[N+]([O-])c1cccc(Nc2nc(Cl)nc(Cl)n2)c1
TGI [2]: > 100 µM
TGI [8]: > 100 µM
TGI [3]: > 100 µM
TGI [9]: > 100 µM
TGI [4]: > 100 µM
TGI [5]: > 100 µM
TGI [6]: > 100 µM
TGI [7]: > 100 µM
TGI [1]: > 100 µM

COc1ccc(/C=C\c2cc(OC)c(OC)c(OC)c2)cc1
TGI [2]: > 100 µM
TGI [3]: > 100 µM
TGI [9]: > 100 µM
TGI [10]: > 100 µM
TGI [5]: > 100 µM
TGI [7]: > 100 µM

COc1ccc2[nH]c3c(c2c1)[C@H]1CCC(C(C)(C)C)C[C@H]1[C@H]1C(=O)N(c2ccccc2)C(=O)[C@@H]31 (some centres not stated)
TGI [2]: > 100 µM
TGI [8]: 31 µM
TGI [3]: > 100 µM
TGI [9]: 57.5 µM
TGI [4]: > 100 µM
TGI [10]: > 76.7 µM
TGI [5]: > 96.2 µM
TGI [11]: 99.6 µM
TGI [7]: > 94.2 µM
TGI [1]: > 100 µM

O=[N+]([O-])/C(Cl)=C(/C(Cl)=C(Cl)Cl)N1CCOCC1
TGI [1]: 11.7 µM

CCCCCCCCC(O)c1ccc(/C=C\C(O)CCCC(=O)O)s1 (configuration not stated)
TGI [2]: > 100 µM
TGI [8]: > 100 µM
TGI [3]: > 100 µM
TGI [4]: > 100 µM
TGI [10]: > 100 µM
TGI [5]: > 100 µM
TGI [11]: > 100 µM
TGI [6]: > 100 µM
TGI [7]: > 100 µM
TGI [1]: > 100 µM

CCc1n[nH]c(=O)n1/N=C(\C)c1ccccc1
TGI [1]: > 100 µM

Cc1[nH]c(-c2ccccc2)c2nc(N(C)C)oc(=O)c12
TGI [1]: > 100 µM

COC(=O)/C=C/[C@@H]1[C@H](C)N1S(=O)(=O)c1ccc(C)cc1 (some centres not stated)
TGI [1]: > 100 µM

Cn1nnc2c3c(N(CCO)CCO)ccnc3ccc21
TGI [1]: > 100 µM

O=C1Oc2ccccc2C(=O)/C1=C/N1C(=O)CNC1=S
TGI [1]: > 100 µM

COC(=O)/C=C(\C)CCC1SC1(C)C (configuration not stated)
TGI [2]: > 100 µM
TGI [8]: > 100 µM
TGI [3]: > 100 µM
TGI [4]: > 100 µM
TGI [10]: > 100 µM
TGI [5]: > 100 µM
TGI [11]: > 100 µM
TGI [6]: > 100 µM
TGI [7]: > 100 µM
TGI [1]: > 100 µM

COc1cc(OC)c2c(=O)c3cccc(C)c3n(C)c2c1
TGI [1]: > 100 µM

CCCCCCCCCCCCCCCCNC(=O)/C(=C\c1ccc(Cl)c(Cl)c1)NC(=O)c1ccccc1
TGI [1]: > 100 µM

CCOC(=O)C(=CNc1ccc(F)c(F)c1)C(=O)OCC
TGI [1]: > 100 µM

O=C1OC([C@H](O)c2cccnc2)c2ccccc21 (some centres not stated)
TGI [1]: > 10 µM

O=C1NCN(c2ccccc2)C12CCN(CC1COc3ccccc3O1)CC2 (configuration not stated)
TGI [1]: > 100 µM

C1CSCC2(COC2)CSCCSCC2(COC2)CS1
TGI [1]: > 100 µM

O=C(NCCNCCNC(=O)c1cc(-c2ccccc2)nc2ccccc12)c1cc(-c2ccccc2)nc2ccccc12
TGI [1]: 3.25 µM

CC(=O)/C(=C\I)c1ccccc1
TGI [1]: 2.82 µM

CCOC(=O)CCC(NC(=O)c1ccc(NC(OC)c2nc3cc(C(F)(F)F)ccc3nc2-c2ccccc2)cc1)C(=O)OCC (configuration not stated)
TGI [2]: 20.3 µM
TGI [3]: 21 µM
TGI [9]: 29.2 µM
TGI [4]: 27.2 µM
TGI [10]: 30.7 µM
TGI [5]: 24.1 µM
TGI [11]: 44.5 µM
TGI [6]: 37.3 µM
TGI [7]: 29.2 µM
TGI [1]: 20.7 µM

CCOC(=O)C1=C(OC(OCC)C(CC)[Se]c2ccccc2)CCC1 (configuration not stated)
TGI [2]: 77 µM
TGI [8]: 46.8 µM
TGI [3]: 29.2 µM
TGI [9]: 32.9 µM
TGI [4]: > 100 µM
TGI [10]: 15.6 µM
TGI [5]: 45.4 µM
TGI [11]: 69.5 µM
TGI [6]: 97.4 µM
TGI [7]: 30.8 µM

Reference: PubChem BioAssay (NCI)
